Measured values published in patent US9409908B2 (priority 2012, dated 2016).
Counter-ions that a name gives are not always drawn. Like-named read-outs stand apart in the source and are kept apart here.

Legend:
[1] = target: purified human Factor XIa (Homo sapiens (Human), UniProt P03951); experiment: biochemical; type: biochemical
[2] = target: purified human plasma kallikrein (Homo sapiens (Human), UniProt P03952); experiment: biochemical; type: biochemical
Sequence of purified human plasma kallikrein (P03952 whole entry, looked up): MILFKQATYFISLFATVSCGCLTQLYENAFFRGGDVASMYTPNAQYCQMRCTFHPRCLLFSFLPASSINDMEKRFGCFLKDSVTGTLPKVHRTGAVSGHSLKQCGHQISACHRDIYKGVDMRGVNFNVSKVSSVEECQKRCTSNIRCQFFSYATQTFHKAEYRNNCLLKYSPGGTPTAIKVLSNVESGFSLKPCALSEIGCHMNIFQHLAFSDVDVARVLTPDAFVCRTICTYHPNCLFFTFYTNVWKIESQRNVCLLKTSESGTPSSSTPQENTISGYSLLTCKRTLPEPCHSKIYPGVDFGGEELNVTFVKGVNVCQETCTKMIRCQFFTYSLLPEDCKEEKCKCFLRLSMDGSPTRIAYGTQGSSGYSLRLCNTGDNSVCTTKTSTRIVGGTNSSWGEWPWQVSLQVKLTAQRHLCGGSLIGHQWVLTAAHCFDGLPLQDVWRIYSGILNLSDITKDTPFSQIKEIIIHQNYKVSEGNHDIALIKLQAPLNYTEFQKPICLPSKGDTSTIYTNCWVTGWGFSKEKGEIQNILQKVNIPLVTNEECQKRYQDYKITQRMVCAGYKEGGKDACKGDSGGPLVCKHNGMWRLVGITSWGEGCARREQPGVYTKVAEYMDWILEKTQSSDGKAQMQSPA
Sequence of purified human plasma kallikrein (P03952 whole entry partner, looked up): as the sequence (P03952 whole entry, looked up) above

Sequence of purified human Factor XIa (P03951 whole entry, looked up): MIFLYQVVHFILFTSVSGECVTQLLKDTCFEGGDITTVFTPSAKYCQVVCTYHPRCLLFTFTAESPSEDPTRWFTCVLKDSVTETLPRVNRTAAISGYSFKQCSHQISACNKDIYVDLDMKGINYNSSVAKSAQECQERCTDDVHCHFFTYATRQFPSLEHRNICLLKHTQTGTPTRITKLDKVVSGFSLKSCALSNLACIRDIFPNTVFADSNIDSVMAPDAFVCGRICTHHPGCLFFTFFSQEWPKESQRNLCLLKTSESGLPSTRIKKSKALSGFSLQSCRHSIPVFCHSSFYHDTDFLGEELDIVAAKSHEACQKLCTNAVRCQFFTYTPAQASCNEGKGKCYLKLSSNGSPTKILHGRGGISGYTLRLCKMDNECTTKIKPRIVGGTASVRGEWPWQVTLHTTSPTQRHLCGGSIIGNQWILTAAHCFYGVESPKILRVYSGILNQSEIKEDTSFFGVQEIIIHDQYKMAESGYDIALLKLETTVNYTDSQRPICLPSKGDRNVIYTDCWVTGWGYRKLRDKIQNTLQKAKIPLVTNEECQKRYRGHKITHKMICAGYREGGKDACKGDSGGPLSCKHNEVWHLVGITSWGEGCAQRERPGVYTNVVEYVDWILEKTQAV
Sequence of purified human Factor XIa (P03951 whole entry partner, looked up): as the sequence (P03951 whole entry, looked up) above

SMILES | Ki ([1]; read-out: Factor XIa Ki) [nM] | Ki ([2]; read-out: Plasma Kallikrein Ki) [nM] | other results
C[C@@H]1CCC[C@H](N2CCC(c3c(F)ccc(Cl)c3F)=CC2=O)c2cc(ccn2)-c2ccc(NC3O[C@H](CO)[C@@H](O)[C@H](O)[C@H]3O)cc2NC1=O (stereo partly drawn) [Example 126, (10R,14S)-14-[4-(3-chloro-2,6-difluorophenyl)-6-oxo-1,2,3,6-tetrahydropyridin-1-yl]-10-methyl-5-{[(3R,4S,5S,6R)-3,4,5-trihydroxy-6-(hydroxymethyl)oxan-2-yl]amino}-8,16-diazatricyclo[13.3.1.0^2,7]nonadeca-1(19),2,4,6,15,17-hexaen-9-one] | 16.1 | 37.6 | 
C[C@@H]1CCC[C@H](N2CCC(c3c(-c4ccccc4)ccc(Cl)c3F)=CC2=O)c2cc(ccn2)-c2ccccc2NC1=O [Example 57, (10R,14S)-14-[4-(3-Chloro-2-fluoro-6-phenylphenyl)-6-oxo-1,2,3,6-tetrahydropyridin-1-yl]-10-methyl-8,16-diazatricyclo[13.3.1.0^2,7]nonadeca-1(19),2,4,6,15,17-hexaen-9-one, TFA salt] | 35.6 | 351 | 
C[C@@H]1CCC[C@H](N2CCC(c3c(F)ccc(Cl)c3F)=CC2=O)c2cc(ccn2)-c2ccc(Nc3cccnn3)cc2NC1=O [Example 196, (10R,14S)-14-[4-(3-chloro-2,6-difluorophenyl)-6-oxo-1,2,3,6-tetrahydropyridin-1-yl]-10-methyl-5-[(pyridazin-3-yl)amino]-8,16-diazatricyclo[13.3.1.0^2,7]nonadeca-1(19),2(7),3,5,15,17-hexaen-9-one, 2 TFA salt] | 0.8 | 1.52 | 
C[C@@H]1CCC[C@H](N2CCC(c3c(F)ccc(Cl)c3F)=CC2=O)c2cc(ccn2)-c2cc(C#N)ccc2NC1=O [Example 138, (10R,14S)-14-[4-(3-chloro-2,6-difluorophenyl)-6-oxo-1,2,3,6-tetrahydropyridin-1-yl]-10-methyl-9-oxo-8,16-diazatricyclo[13.3.1.0^2,7]nonadeca-1(19),2(7),3,5,15,17-hexaene-4-carbonitrile] | 36.2 | 31.7 | 
C[C@@H]1CCC[C@H](N2CCC(c3c(F)ccc(Cl)c3F)=CC2=O)c2cc(ccn2)-c2ccc(Br)cc2NC1=O [Example 69, (10R,14S)-5-Bromo-14-[4-(3-chloro-2,6-difluorophenyl)-6-oxo-1,2,3,6-tetrahydropyridin-1-yl]-10-methyl-8,16-diazatricyclo[13.3.1.0^2,7]nonadeca-1(19),2,4,6,15,17-hexaen-9-one, TFA salt] | 79.2 | 338 | 
C[C@@H]1CCC[C@H](N2CCC(c3c(F)cccc3C#N)=CC2=O)c2cc(ccn2)-c2ccccc2NC1=O [Example 50, 3-Fluoro-2-{1-[(10R,14S)-10-methyl-9-oxo-8,16-diazatricyclo[13.3.1.0^2,7]nonadeca-1(19),2,4,6,15,17-hexaen-14-yl]-6-oxo-1,2,3,6-tetrahydropyridin-4-yl}benzonitrile, TFA salt] | 102 | 130 | 
C[C@@H]1CCC[C@H](N2CCC(c3c(F)ccc(Cl)c3F)=CC2=O)c2cc(ccn2)-c2cc3ccc(=O)[nH]c3cc2NC1=O [Example 81, (14R,18S)-18-[4-(3-Chloro-2,6-difluorophenyl)-6-oxo-1,2,3,6-tetrahydropyridin-1-yl]-14-methyl-8,12,20-triazatetracyclo[17.3.1.0^2,11.0^4,9]tricosa-1(23),2,4(9),5,10,19,21-heptaene-7,13-dione, TFA salt] | 0.31 | 1 | 
COC(=O)c1ccc2c(c1)-c1cccc(c1)[C@H](N1CCC(c3c(F)ccc(Cl)c3F)=CC1=O)CCC[C@@H](C)C(=O)N2 [Example 165, Methyl (10R,14R)-14-[4-(3-chloro-2,6-difluorophenyl)-6-oxo-1,2,3,6-tetrahydropyridin-1-yl]-10-methyl-9-oxo-8-azatricyclo[13.3.1.0^2,7]nonadeca-1(19),2,4,6,15,17-hexaene-4-carboxylate] | > 398 | 9470 | 
COC(=O)Nc1ccc2c(c1)NC(=O)C(C)(O)CCC[C@H](N1CCC(c3c(F)ccc(Cl)c3F)=CC1=O)c1cc-2ccn1 (stereo partly drawn) [Example 123, Methyl N-[(14S)-14-[4-(3-chloro-2,6-difluorophenyl)-6-oxo-1,2,3,6-tetrahydropyridin-1-yl]-10-hydroxy-10-methyl-9-oxo-8,16-diazatricyclo[13.3.1.0^2,7]nonadeca-1(19),2,4,6,15,17-hexaen-5-yl]carbamate, TFA salt] | 20.1 | 26.1 | 
CC(=O)NC(=S)Nc1ccc2c(c1)NC(=O)[C@H](C)CCC[C@H](N1CCC(c3c(F)ccc(Cl)c3F)=CC1=O)c1cc-2ccn1 [Example 63, 3-Acetyl-1-[(10R,14S)-14-[4-(3-chloro-2,6-difluorophenyl)-6-oxo-1,2,3,6-tetrahydropyridin-1-yl]-10-methyl-9-oxo-8,16-diazatricyclo[13.3.1.0^2,7]nonadeca-1(19),2,4,6,15,17-hexaen-5-yl]thiourea] | 7.86 | 48 | 
COC(=O)Nc1ccc2c(c1)NC(=O)[C@H](C)CCC[C@H](N1CCC(c3c(C#N)ccc(Cl)c3F)=CC1=O)c1cc-2cc(OC)n1 [Example 26, Methyl N-[(10R,14S)-14-[4-(3-chloro-6-cyano-2-fluorophenyl)-6-oxo-1,2,3,6-tetrahydropyridin-1-yl]-17-methoxy-10-methyl-9-oxo-8,16-diazatricyclo[13.3.1.0^2,7]nonadeca-1(18),2,4,6,15(19),16-hexaen-5-yl]carbamate] | 0.09 | 1 | 
COC(=O)Nc1ccc2c(c1)NC(=O)[C@H](C)C(=O)CC[C@H](N1CCC(c3c(F)ccc(Cl)c3F)=CC1=O)c1cc-2ccn1 [Example 136, Methyl N-[(10R,14S)-14-[4-(3-chloro-2,6-difluorophenyl)-6-oxo-1,2,3,6-tetrahydropyridin-1-yl]-10-methyl-9,11-dioxo-8,16-diazatricyclo[13.3.1.0^2,7]nonadeca-1(19),2(7),3,5,15,17-hexaen-5-yl]carbamate] | 45.3 | 118 | 
C[C@@H]1CCC[C@H](N2CCC(c3c(F)ccc(Cl)c3F)=CC2=O)c2cc(ccn2)-c2cc(Br)c(N)cc2NC1=O [Example 193, (10R,14S)-5-amino-4-bromo-14-[4-(3-chloro-2,6-difluorophenyl)-6-oxo-1,2,3,6-tetrahydropyridin-1-yl]-10-methyl-8,16-diazatricyclo[13.3.1.0^2,7]nonadeca-1(19),2(7),3,5,15,17-hexaen-9-one, 2 TFA salt] | 1.02 | 3.91 | 
C[C@@H]1CCC[C@H](N2CCC(c3c(Br)ccc(Cl)c3F)=CC2=O)c2cc(ccn2)-c2ccc(C(=O)O)cc2NC1=O [Example 28, (14S)-14-[4-(6-Bromo-3-chloro-2-fluorophenyl)-6-oxo-1,2,3,6-tetrahydropyridin-1-yl]-10-methyl-9-oxo-8,16-diazatricyclo[13.3.1.0^2,7]nonadeca-1(19),2(7),3,5,15,17-hexaene-5-carboxylic acid, TFA salt] | > 443 | 196 | 
Cc1nnc(Nc2ccc3c(c2)NC(=O)[C@H](C)CCC[C@H](N2CCC(c4c(F)ccc(Cl)c4F)=CC2=O)c2cc-3ccn2)o1 [Example 21, (10R,14S)-14-[4-(3-Chloro-2,6-difluorophenyl)-6-oxo-1,2,3,6-tetrahydropyridin-1-yl]-10-methyl-5-[(5-methyl-1,3,4-oxadiazol-2-yl)amino]-8,16-diazatricyclo[13.3.1.0^2,7]nonadeca-1(19),2(7),3,5,15,17-hexaen-9-one, TFA salt] | 0.46 | 1 | 
COC(=O)Nc1ccc2c(c1)NC(=O)[C@H](C)CCC[C@H](N1CCC(c3c(C(C)=O)ccc(Cl)c3F)=CC1=O)c1cccc-2c1 [Example 171, Methyl N-[(10R,14S)-14-[4-(6-acetyl-3-chloro-2-fluorophenyl)-6-oxo-1,2,3,6-tetrahydropyridin-1-yl]-10-methyl-9-oxo-8-azatricyclo[13.3.1.0^2,7]nonadeca-1(18),2,4,6,15(19),16-hexaen-5-yl]carbamate] | 0.17 | 8.87 | 
COC(=O)Nc1ccc2c(c1)NC(=O)[C@H](C)CCC[C@H](N1CCC(C3CCCC(C)C3)=CC1=O)c1cc-2ccn1 (single isomer, unassigned) [Example 218, TFA salt] |  |  | Ki ([1]; TFA salt, read-out: Factor XIa Ki): 38.2 nM; Ki ([2]; TFA salt, read-out: Plasma Kallikrein Ki): 378 nM
C[C@@H]1CCC[C@H](N2CCC(c3c(C#N)ccc(Cl)c3F)=CC2=O)c2cc(ccn2)-c2ccc(C(N)=O)cc2NC1=O [Example 33, (10R,14S)-14-[4-(3-Chloro-6-cyano-2-fluorophenyl)-6-oxo-1,2,3,6-tetrahydropyridin-1-yl]-10-methyl-9-oxo-8,16-diazatricyclo[13.3.1.0^2,7]nonadeca-1(19),2,4,6,15,17-hexaene-5-carboxamide, TFA salt] | 2.02 | 3 | 
C[C@@H]1CCC[C@H](N2CCC(c3c(F)ccc(Cl)c3F)=CC2=O)c2cc(ccn2)-c2ccccc2NC1=O [Example 13, (10R,14S)-14-[4-(3-Chloro-2,6-difluorophenyl)-6-oxo-1,2,3,6-tetrahydropyridin-1-yl]-10-methyl-8,16-diazatricyclo[13.3.1.0^2,7]nonadeca-1(19),2,4,6,15,17-hexaen-9-one] | 13.7 | 8 | 
COC(=O)Nc1ccc2c(c1)C(=O)N[C@H](C)CCC[C@H](N1CCC(c3c(F)ccc(Cl)c3F)=CC1=O)c1cc-2ccn1 (single isomer, unassigned; diastereomer b) [Example 194, TFA salt] |  |  | Ki [1]: > 422 nM; Ki ([2]; Plasma Kallikrein Ki): 310 nM
CC1CCC[C@H](N2CCC(c3c(Br)ccc(Cl)c3F)=CC2=O)c2cc(ccn2)-c2ccc(-c3nnc[nH]3)cc2NC1=O (stereo partly drawn) [Example 38, (14S)-14-[4-(6-Bromo-3-chloro-2-fluorophenyl)-6-oxo-1,2,3,6-tetrahydropyridin-1-yl]-10-methyl-5-(4H-1,2,4-triazol-3-yl)-8,16-diazatricyclo[13.3.1.0^2,7]nonadeca-1(19),2(7),3,5,15,17-hexaen-9-one, TFA salt] | 2.77 | 6 | 
